In patent publication US10954287B2, “Ras binding peptides and methods of use” (Ra Pharmaceuticals, Inc., priority 2016, dated 2021):

Test system: GMPPNP-loaded H-Ras or GTP-loaded K-Ras
Assay: Fluorescence polarization competition assay with TAMRA-labeled probe R4007
Format: binding, human
Settings: 120 nM Ras, 30 nM probe R4007, 60 minutes at room temperature; read-out: Probe displacement (nM IC50)
Description: R4000 was evaluated for competition with a TAMRA labeled probe (R4007) based on peptide R4000. The assay was performed in 384-well black, non-binding plates (Greiner Bio-One, Monroe, N.C.). GMPPNP-loaded H-Ras or GTP-loaded K-Ras, diluted in FP assay buffer (20 mM Tris-HCl, pH 7.5, 50 mM NaCl, 5 mM MgCl2, 1 mM EDTA, 0.002% Triton-X-100) for a final concentration of 120 nM was incubated with 30 nM R4007 for 20 minutes at room temperature. R4000 was serially diluted, added to the assay and incubated for 60 minutes at room temperature. Fluorescence polarization was detected with a SpectraMax Paradigm plate reader (Molecular Devices, Sunnyvale, Calif.) using the Rhodamine FP detection cartridge (535 nm/595 nm). Data was analyzed using GraphPad Prism and Ki determined using One Site Ki Curve fitting model.
Peptides were evaluated for competition with R4007, a probe consisting of TAMRA-labeled R4000, using a fluorescence polarization (FP) competition assay. The assay was performed in 384-well black, non-binding plates (Greiner Bio-One, Monroe, N.C.). GMPPNP-loaded H-Ras or GTP- loaded K-Ras, diluted in FP assay buffer (20 mM Tris-HCl, pH 7.5, 50 mM NaCl, 5 mM MgCl2, 1 mM EDTA, 0.002% Triton-X-100) for a final concentration of 120 nM was incubated with 30 nM probe for 20 minutes at room temperature. Peptides were serially diluted, added to the assay and incubated for 60 minutes at room temperature. Fluorescence was detected with a SpectraMax Paradigm plate reader (Molecular Devices, Sunnyvale, Calif.) using the Rhodamine FP detection cartridge (535 nm/595 nm). Data was analyzed and Ki determined using a One Site Ki Curve fitting model. Percent inhibition for each data point was calculated relative to the maximal binding in test compound-free control wells (showing no probe displacement) and Ras-free control wells (showing no probe binding) and the half-maximal inhibitory concentration (IC50), based on probe displacement, was determined.

Row | SMILES | IC50 [nM]
1 | C=CC(=O)NCCCC[C@@H]1NC(=O)[C@H](C)NC(=O)[C@H](C(C)(C)C)NC(=O)[C@H](Cc2ccc(O)cc2)NC(=O)[C@@H](NC(=O)[C@H](CCC)NC(C)=O)CSCc2cccc(c2)CSC[C@@H](C(N)=O)NC(=O)CN(C)C(=O)[C@H](Cc2ccc(F)cc2)N(C)C(=O)[C@H](Cc2ccc(O)cc2)NC(=O)[C@H](Cc2c[nH]c3ncccc23)NC(=O)[C@H](c2ccccc2)NC(=O)[C@H](C)N(C)C1=O (relative stereo) [Compound R4123, ACE-NVA-CYS*-TYR-TBG-ALA-KAC-NMA-PHG-7AW-TYR-MFF-SAR-CYS*-NH2] | 85
2 | C[C@H]1C(=O)N[C@@H](c2ccccc2)C(=O)N[C@@H](Cc2c[nH]c3ncccc23)C(=O)N[C@@H](Cc2ccc(O)cc2)C(=O)N(C)[C@@H](Cc2ccc(F)cc2)C(=O)N(C)CC(=O)NCCOCCOCCC(=O)N[C@@H](Cc2ccc(O)cc2)C(=O)N[C@@H](C(C)(C)C)C(=O)N[C@@H](CCCCN)C(=O)N[C@@H](Cc2c[nH]cn2)C(=O)N1C (relative stereo) [Compound R4124, PEG2PA*-TYR-TBG-LYS-HIS-NMA-PHG-7AW-TYR-MFF-SAR*] | 88.4
3 | C=CC(=O)NCCC[C@@H]1NC(=O)[C@H](C)NC(=O)[C@H](C(C)(C)C)NC(=O)[C@H](Cc2ccc(O)cc2)NC(=O)[C@@H](NC(=O)[C@H](CCC)NC(C)=O)CSCc2cccc(c2)CSC[C@@H](C(N)=O)NC(=O)CN(C)C(=O)[C@H](Cc2ccc(F)cc2)N(C)C(=O)[C@H](Cc2ccc(O)cc2)NC(=O)[C@H](Cc2c[nH]c3ncccc23)NC(=O)[C@H](c2ccccc2)NC(=O)[C@H](C)N(C)C1=O (relative stereo) [Compound R4122, ACE-NVA-CYS*-TYR-TBG-ALA-ORAC-NMA-PHG-7AW-TYR-MFF-SAR-CYS*-NH2] | 77.1
4 | CC(=O)N[C@H]1CSCc2cccc(c2)CSC[C@@H](C(N)=O)NC(=O)CN(C)C(=O)[C@H](Cc2ccc(F)cc2)N(C)C(=O)[C@H](Cc2ccc(O)cc2)NC(=O)[C@H](Cc2c[nH]c3ncccc23)NC(=O)[C@H](c2ccccc2)NC(=O)[C@H](C)N(C)C(=O)[C@H](Cc2c[nH]cn2)NC(=O)[C@H](CCCCN)NC(=O)[C@H](C(C)(C)C)NC(=O)[C@H](Cc2ccc(O)cc2)NC1=O (relative stereo) [Compound R4112, ACE-CYS*-TYR-TBG-LYS-HIS-NMA-PHG-7AW-TYR-MFF-SAR-CYS*-NH2] | 21.4
5 | CCC[C@H](NC(C)=O)C(=O)N[C@H]1CSCc2cccc(c2)CSC[C@@H](C(N)=O)NC(=O)[C@H](CO)N(C)C(=O)[C@H](Cc2ccc(F)cc2)N(C)C(=O)[C@H](Cc2ccc(O)cc2)NC(=O)[C@H](Cc2c[nH]c3ncccc23)NC(=O)[C@H](c2ccccc2)NC(=O)[C@H](C)N(C)C(=O)[C@H](Cc2c[nH]cn2)NC(=O)[C@H](CCCCN)NC(=O)[C@H](C(C)(C)C)NC(=O)[C@H](Cc2ccc(O)cc2)NC1=O (relative stereo) [Compound R4118, ACE-NVA-CYS*-TYR-TBG-LYS-HIS-NMA-PHG-7AW-TYR-MFF-NMS-CYS*-NH2] | 51.5
6 | CCC[C@H](NC(C)=O)C(=O)N[C@H]1CSCc2cccc(c2)CSC[C@@H](C(N)=O)NC(=O)[C@H](C)N(C)C(=O)[C@H](Cc2ccc(F)cc2)N(C)C(=O)[C@H](Cc2ccc(O)cc2)NC(=O)[C@H](Cc2c[nH]c3ncccc23)NC(=O)[C@@H](c2ccccc2)NC(=O)[C@H](C)N(C)C(=O)[C@H](Cc2c[nH]cn2)NC(=O)[C@H](CCCCN)NC(=O)[C@H](C(C)(C)C)NC(=O)[C@H](Cc2ccc(O)cc2)NC1=O (relative stereo) [Compound R4121, ACE-NVA-CYS*-TYR-TBG-LYS-HIS-NMA-DPHG-7AW-TYR-MFF-NMA-CYS*-NH2] | 73
7 | CCC[C@H](NC(C)=O)C(=O)N[C@H]1CSCc2cccc(c2)CSC[C@@H](C(N)=O)NC(=O)CN(C)C(=O)[C@H](Cc2ccc(F)cc2)N(C)C(=O)[C@H](Cc2ccc(O)cc2)NC(=O)[C@H](Cc2c[nH]c3ncccc23)NC(=O)[C@H](c2ccccc2)NC(=O)[C@H](C)N(C)C(=O)[C@H](CN)NC(=O)[C@H](C)NC(=O)[C@H](C(C)(C)C)NC(=O)[C@H](Cc2ccc(O)cc2)NC1=O (relative stereo) [Compound R4141, ACE-NVA-CYS*-TYR-TBG-ALA-DAP-NMA-PHG-7AW-TYR-MFF-SAR-CYS*-NH2] | 695
8 | CCC[C@H](N)C(=O)N[C@H]1CSCc2cccc(c2)CSC[C@@H](C(N)=O)NC(=O)CN(C)C(=O)[C@H](Cc2ccc(F)cc2)N(C)C(=O)[C@H](Cc2ccc(O)cc2)NC(=O)[C@H](Cc2c[nH]c3ncccc23)NC(=O)[C@H](c2ccccc2)NC(=O)[C@H](C)N(C)C(=O)[C@H](Cc2cnc[nH]2)NC(=O)[C@H](CCCCN)NC(=O)[C@H](C(C)(C)C)NC(=O)[C@H](Cc2ccc(O)cc2)NC1=O (relative stereo) [Compound R4002, NVA-CYS*-TYR-TBG-LYS-HIS-NMA-PHG-7AW-TYR-MFF-SAR-CYS*-NH2] | 7.92
9 | CCC[C@H](NC(C)=O)C(=O)N[C@H]1CSCc2cccc(c2)CSC[C@@H](C(=O)N[C@H](CO)C(=O)N[C@H](C)C(=O)NCC(=O)N[C@@H](CS)C(=O)N[C@H](C(=O)N[C@H](C(=O)N[C@@H](CCSC)C(=O)O)[C@@H](C)CC)C(C)C)NC(=O)CN(C)C(=O)[C@H](Cc2ccc(F)cc2)N(C)C(=O)[C@H](Cc2ccc(O)cc2)NC(=O)[C@H](Cc2c[nH]c3ncccc23)NC(=O)[C@H](c2ccccc2)NC(=O)[C@H](C)N(C)C(=O)[C@H](Cc2c[nH]cn2)NC(=O)[C@H](CCCCN)NC(=O)[C@H](C(C)(C)C)NC(=O)[C@H](Cc2ccc(O)cc2)NC1=O (relative stereo) [Compound R4102, ACE-NVA-CYS*-TYR-TBG-LYS-HIS-NMA-PHG-7AW-TYR-MFF-SAR-CYS*-DSER-DALA-GLY-CYS-VAL-ILE-MET] | 1.82
10 | CCC[C@H](NC(=O)CCCC(=O)O)C(=O)N[C@H]1CSCc2cccc(c2)CSC[C@@H](C(N)=O)NC(=O)CN(C)C(=O)[C@H](Cc2ccc(F)cc2)N(C)C(=O)[C@H](Cc2ccc(O)cc2)NC(=O)[C@H](Cc2c[nH]c3ncccc23)NC(=O)[C@H](c2ccccc2)NC(=O)[C@H](C)N(C)C(=O)[C@H](Cc2c[nH]cn2)NC(=O)[C@H](CCCCNC(CC(C)C)=C2C(=O)CC(C)(C)CC2=O)NC(=O)[C@H](C(C)(C)C)NC(=O)[C@H](Cc2ccc(O)cc2)NC1=O (relative stereo) [Compound R4138, GLA-NVA-CYS*-TYR-TBG-LYS-(DDE)-HIS-NMA-PHG-7AW-TYR-MFF-SAR-CYS*-NH2] | 461
11 | CCC[C@H](NC(C)=O)C(=O)N[C@H]1CSCc2cccc(c2)CSC[C@@H](C(N)=O)NC(=O)CN(C)C(=O)[C@H](Cc2ccc(F)cc2)N(C)C(=O)[C@H](Cc2ccc(O)cc2)NC(=O)[C@H](Cc2c[nH]c3ncccc23)NC(=O)[C@H](c2ccccc2)NC(=O)[C@H](CCCCN)N(C)C(=O)[C@H](Cc2c[nH]cn2)NC(=O)[C@H](C)NC(=O)[C@H](C(C)(C)C)NC(=O)[C@H](Cc2ccc(O)cc2)NC1=O (relative stereo) [Compound R4125, ACE-NVA-CYS*-TYR-TBG-ALA-HIS-NMK-PHG-7AW-TYR-MFF-SAR-CYS*-NH2] | 110
12 | C#CC[C@H](NC(=O)CCOCCOCCOCCOCCNC(=O)[C@@H]1CSCc2cccc(c2)CSC[C@H](NC(=O)[C@H](CCC)NC(C)=O)C(=O)N[C@@H](Cc2ccc(O)cc2)C(=O)N[C@@H](C(C)(C)C)C(=O)N[C@@H](CCCCN)C(=O)N[C@@H](Cc2c[nH]cn2)C(=O)N(C)[C@@H](C)C(=O)N[C@@H](c2ccccc2)C(=O)N[C@@H](Cc2c[nH]c3ncccc23)C(=O)N[C@@H](Cc2ccc(O)cc2)C(=O)N(C)[C@@H](Cc2ccc(F)cc2)C(=O)N(C)CC(=O)N1)C(N)=O (relative stereo) [Compound R4107, ACE-NVA-CYS*-TYR-TBG-LYS-HIS-NMA-PHG-7AW-TYR-MFF-SAR-CYS*-PEG4PA-PRG-NH2] | 9.42
